Measurements: a compilation of properties of binary mixtures (doi:10.1007/s10953-023-01246-7)

Experiment: xn = mol fraction of the nth substance listed
Settings: 100 kPa

CCOS(=O)(=O)[O-].CC[n+]1ccn(C)c1 + OCCO
viscosity [mPa·s]
Settings | x1 = 0.1003 | x1 = 0.1982 | x1 = 0.2999 | x1 = 0.4002 | x1 = 0.5005 | x1 = 0.5992 | x1 = 0.6994 | x1 = 0.8001 | x1 = 0.8993
293.15 K | – | 17.96 | – | 25.17 | 32.09 | 40.31 | 54.7 | 70.3 | 99.9
298.15 K | 14.75 | 15.08 | 17.32 | 21.18 | 26.88 | 33.49 | 44.9 | 56.9 | 78.4
303.15 K | 12.28 | 12.75 | 14.69 | 17.95 | 22.71 | – | – | 46.47 | 62.8
308.15 K | 10.4 | – | – | 15.42 | 19.35 | 23.73 | 31.11 | 38.47 | 51.2
313.15 K | 8.88 | – | 10.94 | 13.31 | 16.65 | 20.23 | 26.27 | 32.2 | 42.22
318.15 K | 7.67 | – | 9.49 | – | 14.46 | 17.49 | 22.38 | – | –
323.15 K | – | 7.16 | 8.38 | 10.19 | 12.56 | 15.18 | 19.32 | 23.28 | 29.87
328.15 K | 5.8 | 6.26 | 7.45 | 9.03 | 11.07 | 13.32 | 16.79 | 20.18 | 25.55
333.15 K | – | – | 6.62 | 8.07 | – | 11.79 | 14.74 | 17.49 | 22.02
338.15 K | 4.53 | 4.97 | 5.94 | 7.19 | 8.77 | – | 13.02 | 15.39 | 19.13
343.15 K | 4.03 | 4.47 | 5.33 | 6.46 | – | – | 11.55 | – | 16.8
